Assay results from patent US20120165331A1, “Di/tri-aza-spiro-C9-C11alkanes” (priority 2010, published 2012).

Assays:
[1] = biological target: T1, human orexin 1 receptor (Homo sapiens, UniProt O43613); assay: Calcium accumulation in cells (FLIPR), antagonism of orexin A, human orexin 1 receptor; format: cell-based; conditions: for Ki: calcium accumulation, antagonism of orexin A, Cheng-Prusoff corrected, read-out: FLIPR hOx1R Ki; for inhibition at 10 µM: measured at a concentration of 10 μM of compound, read-out: FLIPR hOx1R % inhibition
T1 construct: expressed in transfected cells
T1 sequence (O43613 1-425): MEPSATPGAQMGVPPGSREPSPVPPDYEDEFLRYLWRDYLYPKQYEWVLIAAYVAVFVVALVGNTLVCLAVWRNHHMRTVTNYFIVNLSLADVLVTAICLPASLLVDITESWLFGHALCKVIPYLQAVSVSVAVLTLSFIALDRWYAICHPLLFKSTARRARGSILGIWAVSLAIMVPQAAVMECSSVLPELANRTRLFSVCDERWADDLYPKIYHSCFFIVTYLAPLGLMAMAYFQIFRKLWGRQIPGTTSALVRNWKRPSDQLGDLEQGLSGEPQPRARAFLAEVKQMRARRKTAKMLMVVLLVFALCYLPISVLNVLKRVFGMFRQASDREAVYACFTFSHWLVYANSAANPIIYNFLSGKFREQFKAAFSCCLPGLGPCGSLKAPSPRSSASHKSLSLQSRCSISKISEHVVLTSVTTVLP
Protocol: (§1) Calcium Accumulation in Cells (FLIPR):
(§2) Cells expressing human orexin 1 or human orexin 2 receptors, were seeded at 8,000 cells/well in 384 well black-walled clear bottom, poly-D-lysine coated plates. After 24 h, the medium was removed and cells were washed once with phosphate buffered saline and serum-deprived overnight in assay buffer (130 mM NaCl, 5.4 mM KCl, 1.8 mM CaCl2, 0.8 mM MgSO4, 0.9 mM NaH2PO4, 25 mM glucose, 20 mM HEPES, pH 7.4) containing bovine serum albumin (1% w/v).
(§3) On the day of the experiment, the cells seeded in black plates were treated with assay buffer containing the Ca^2+ sensitive fluorescent dye Fluo-4-AM (2 μM), and probenecid (0.1 mM). After 1 h plates were washed twice with, and resuspended in, assay buffer containing probenecid (0.1 mM) using a multi plate washer. The plates were placed into a FLIPR II (Fluorometric Imaging Plate Reader, Molecular Devices, Sunnyvale, Calif., USA) and baseline fluorescence (fluorescence light units, FLU) was measured (5 measurements, 2 S each; laser excitation 488 nm at 0.6-1 W, CCD camera exposure 0.4 s) before addition of buffer alone (basal) or containing test compounds (either compound of formula I alone, agonist alone or agonist in the presence of various concentrations of compounds of formula I). Fluorescence measurements were then continued every 1 S for 120 S followed by every 4 S for 240 S.
(§4) The measurements were typically made in two sequences:
(§5) Compounds of formula I were tested usually in a concentration range from 10^−9 M to 10^−5 M.
(§6) In the second round, performed one hour later (to allow for equilibration), Orexin A was tested either in the absence (calibration curves, Orexin A agonist controls) or in the presence of compounds of formula Ito determine antagonism.
(§7) Inhibition data is expressed in Table 1 as Kd [μM], converted by the Cheng and Prusoff correction (Kd=IC50/1+(L/EC50)), where IC50 is the 50% inhibition value determined in concentration response inhibition curves, EC50 is the half maximal activation concentration determined for orexin A in concentration response curves and L is the concentration of orexin A used in inhibition experiments performed in with a submaximal concentration of orexin A in the presence of up to 8 increasing concentrations of compound of formula I. Inhibition data is also expressed in Table 1 as % inhibition value measured at a concentration of 10 μM of selected compounds of formula I.

[2] = biological target: T2, human orexin 2 receptor (Homo sapiens, UniProt O43614); assay: Calcium accumulation in cells (FLIPR), antagonism of orexin A, human orexin 2 receptor; format: cell-based; conditions: calcium accumulation, antagonism of orexin A, Cheng-Prusoff corrected; read-out: FLIPR hOx2R Ki
T2 construct: expressed in transfected cells
T2 sequence (O43614 1-444): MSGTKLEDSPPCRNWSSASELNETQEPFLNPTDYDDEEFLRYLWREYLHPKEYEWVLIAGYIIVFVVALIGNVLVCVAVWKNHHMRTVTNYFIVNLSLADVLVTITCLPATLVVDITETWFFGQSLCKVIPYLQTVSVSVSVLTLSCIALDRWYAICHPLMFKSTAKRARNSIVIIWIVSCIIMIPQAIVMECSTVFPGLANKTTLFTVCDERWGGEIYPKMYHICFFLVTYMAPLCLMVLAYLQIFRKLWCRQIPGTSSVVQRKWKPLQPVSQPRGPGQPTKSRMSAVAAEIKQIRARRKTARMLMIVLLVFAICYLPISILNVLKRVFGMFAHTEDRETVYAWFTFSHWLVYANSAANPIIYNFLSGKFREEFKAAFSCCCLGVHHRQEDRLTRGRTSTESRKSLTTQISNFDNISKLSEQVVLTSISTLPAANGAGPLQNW
Protocol: as §1, §2, §3, §4, §5, §6, §7

## Cc1cc(C)nc(N2CCC3(CC2)C(=O)N(Cc2c[nH]c4ccccc24)CCN3C)n1 [Example 1.2, 4-((1H-indol-3-yl)methyl)-9-(4,6-dimethylpyrimidin-2-yl)-1-methyl-1,4,9-triazaspiro[5.5]undecan-5-one]
[1]
  Ki: 3650 nM
[2]
  Ki: 449 nM

## Cc1cc(C)nc(N2CCC3(CC2)NCCN(Cc2nn(C)cc2-c2ccccc2)C3=O)n1 [Example 1.3, 9-(4,6-Dimethyl-pyrimidin-2-yl)-4-(1-methyl-4-phenyl-1H-pyrazol-3-ylmethyl)-1,4,9-triaza-spiro[5.5]undecan-5-on]
[1]
  inhibition at 10 µM: 35%
[2]
  Ki: 334 nM

## Cc1ccnc(N2CCC3(CC2)NCCN(Cc2c[nH]c4ccccc24)C3=O)n1 [Example 1.6, 4-((1H-Indol-3-yl)methyl)-9-(4-methylpyrimidin-2-yl)-1,4,9-triazaspiro[5.5] undecan-5-one]
[1]
  inhibition at 10 µM: 26%
[2]
  Ki: 222 nM

## COc1ccnc(N2CCC3(CC2)NCCN(Cc2c[nH]c4ccccc24)C3=O)n1 [Example 1.7, 4-((1H-Indol-3-yl)methyl)-9-(4-methoxypyrimidin-2-yl)-1,4,9-triazaspiro[5.5] undecan-5-one]
[1]
  inhibition at 10 µM: 35%
[2]
  Ki: 101 nM

## COc1cccc(-c2oc(C)nc2CN2CCNC3(CCN(c4nccc(C)n4)CC3)C2=O)c1 [Example 1.15, 4-((5-(3-Methoxyphenyl)-2-methyloxazol-4-yl)methyl)-9-(4-methylpyrimidin-2-yl)-1,4,9-triazaspiro[5.5] undecan-5-one]
[1]
  inhibition at 10 µM: 44%
[2]
  Ki: 107 nM

## Cc1cc(C)nc(N2CCC3(CC2)NCCN(Cc2nc(C)oc2-c2ccccc2)C3=O)n1 [Example 1.19, 9-(4,6-Dimethyl-pyrimidin-2-yl)-4-((2-methyl-5-phenyloxazol-4-yl)methyl)-1,4,9-triazaspiro[5.5] undecan-5-one]
[1]
  Ki: 2650 nM
[2]
  Ki: 250 nM

## Cc1ccnc(N2CCC3(CC2)NCCN(Cc2nc(C)oc2-c2ccccc2)C3=O)n1 [Example 1.20, 9-(4-Methyl-pyrimidin-2-yl)-4-((2-methyl-5-phenyloxazol-4-yl)methyl)-1,4,9-triazaspiro[5.5] undecan-5-one]
[1]
  inhibition at 10 µM: 12%
[2]
  Ki: 1840 nM

## Cc1cc(C#N)nc(N2CCC3(CC2)NCCN(Cc2nc(C)oc2-c2ccccc2)C3=O)n1 [Example 1.21, 6-Methyl-2-(4-((2-methyl-5-phenyloxazol-4-yl)methyl)-5-oxo-1,4,9-triazaspiro[5.5]undecan-9-yl) pyrimidine-4-carbonitrile]
[1]
  inhibition at 10 µM: 29%
[2]
  Ki: 337 nM

## COc1ccnc(N2CCC3(CC2)NCCN(Cc2nc(C)oc2-c2ccccc2)C3=O)n1 [Example 1.22, 9-(4-Methoxy-pyrimidin-2-yl)-4-((2-methyl-5-phenyloxazol-4-yl)methyl)-1,4,9-triazaspiro[5.5] undecan-5-one]
[1]
  inhibition at 10 µM: 19%
[2]
  Ki: 1020 nM

## COc1cc(C)nc(N2CCC3(CC2)NCCN(Cc2nc(C)oc2-c2ccccc2)C3=O)n1 [Example 1.23, 9-(4-Methoxy-6-methylpyrimidin-2-yl)-4-((2-methyl-5-phenyloxazol-4-yl)methyl)-1,4,9-triazaspiro[5.5] undecan-5-one]
[1]
  Ki: 2110 nM
[2]
  Ki: 192 nM

## COCc1cccc(-c2ocnc2CN2CCNC3(CCN(c4nc(C)cc(C#N)n4)CC3)C2=O)c1 [Example 1.28, 2-(4-((5-(3-(Methoxymethyl)phenyl)oxazol-4-yl)methyl)-5-oxo-1,4,9-triazaspiro[5.5]undecan-9-yl)-6-methylpyrimidine-4-carbonitrile]
[1]
  inhibition at 10 µM: 33%
[2]
  Ki: 511 nM

## COCc1cccc(-c2oc(C)nc2CN2CCNC3(CCN(c4nc(C)cc(C#N)n4)CC3)C2=O)c1 [Example 1.31, 2-(4-((5-(3-(Methoxymethyl)phenyl)-2-methyl-oxazol-4-yl)methyl)-5-oxo-1,4,9-triazaspiro[5.5]undecan-9-yl)-6-methylpyrimidine-4-carbonitrile]
[1]
  inhibition at 10 µM: 38%
[2]
  Ki: 64 nM

## COCc1cccc(-c2oc(C)nc2CN2CCNC3(CCN(c4nc(C)cc(OC)n4)CC3)C2=O)c1 [Example 1.32, 9-(4-Methoxy-6-methylpyrimidin-2-yl)-4-((5-(3-(methoxymethyl)phenyl)-2-methyl-oxazol-4-yl)methyl)-1,4,9-triazaspiro[5.5] undecan-5-one]
[1]
  Ki: 2840 nM
[2]
  Ki: 84 nM

## COc1ccc(-c2cn(C)nc2CN2CCNC3(CCN(c4nc(C)cc(C)n4)CC3)C2=O)cc1OC [Example 1.35, 4-((4-(3,4-Dimethoxyphenyl)-1-methyl-1H-pyrazol-3-yl)methyl)-9-(4,6-dimethylpyrimidin-2-yl)-1,4,9-triazaspiro[5.5] undecan-5-one]
[1]
  inhibition at 10 µM: 25%
[2]
  Ki: 400 nM

## COc1ccc(-c2cn(C)nc2CN2CCNC3(CCN(c4nc(C)cc(C)n4)CC3)C2=O)cc1 [Example 1.36, 9-(4,6-Dimethyl-pyrimidin-2-yl)-4-((4-(4-methoxyphenyl)-1-methyl-1H-pyrazol-3-yl)methyl)-1,4,9-triazaspiro[5.5] undecan-5-one]
[1]
  inhibition at 10 µM: 41%
[2]
  Ki: 187 nM

## COc1cc(OC)cc(-c2cn(C)nc2CN2CCNC3(CCN(c4nc(C)cc(C)n4)CC3)C2=O)c1 [Example 1.37, 4-((4-(3,5-Dimethoxyphenyl)-1-methyl-1H-pyrazol-3-yl)methyl)-9-(4,6-dimethylpyrimidin-2-yl)-1,4,9-triazaspiro[5.5] undecan-5-one]
[1]
  inhibition at 10 µM: 40%
[2]
  Ki: 2330 nM

## Cc1cccc(-c2cn(C)nc2CN2CCNC3(CCN(c4nc(C)cc(C)n4)CC3)C2=O)c1 [Example 1.38, 9-(4,6-Dimethyl-pyrimidin-2-yl)-4-((1-methyl-4-(m-tolyl)-1H-pyrazol-3-yl)methyl)-1,4,9-triazaspiro[5.5] undecan-5-one]
[1]
  inhibition at 10 µM: 29%
[2]
  Ki: 204 nM

## Cc1cc(C)nc(N2CCC3(CC2)NCCN(Cc2nn(C)cc2-c2cccc(F)c2)C3=O)n1 [Example 1.43, 9-(4,6-Dimethyl-pyrimidin-2-yl)-4-((4-(3-fluorophenyl)-1-methyl-1H-pyrazol-3-yl)methyl)-1,4,9-triazaspiro[5.5] undecan-5-one]
[1]
  inhibition at 10 µM: 27%
[2]
  Ki: 447 nM

## Cc1cc(C)nc(N2CCC3(CC2)NCCN(Cc2nn(C)cc2-c2cccc(C#N)c2)C3=O)n1 [Example 1.44, 3-(3-((9-(4,6-Dimethylpyrimidin-2-yl)-5-oxo-1,4,9-triazaspiro[5.5]undecan-4-yl)methyl)-1-methyl-1H-pyrazol-4-yl)benzonitrile]
[1]
  inhibition at 10 µM: 12%
[2]
  Ki: 1490 nM

## O=C1N(Cc2ccccc2-c2ccccc2)CCC12CCN(c1nc3ccccc3s1)CC2 [Example 3.10, 8-(Benzo[d]thiazol-2-yl)-2-(biphenyl-2-ylmethyl)-2,8-diazaspiro[4.5]decan-1-one]
[2]
  Ki: 1080 nM
